Experiment: Agilent ZORBAX 300 SB-C18, 150 × 1 mm, 3.5 µm; A: water + 0.01% heptafluorobutyric acid; B: acetonitrile + 0.01% heptafluorobutyric acid; gradient (min/%B) 0/0 100/90
Settings: stereoisomer not certain
`c1ccc(CN2CCCC2)nc1` gave an LC retention time of 7.01 min.
For `CCN(CC)c1nc(N)nc(N2N=CC=NN2)n1`, the LC retention time was 8.12 min.
Molecule `CC(Cc1ccccc1)N(C)Cc1ccccc1` (stereo not drawn) has an LC retention time of 10.8 min.
With `Cc1ccc(C=NNC(=O)c2ccc(N)cc2)cc1` the LC retention time was 10.3 min.
In the case of `NC(=O)NCc1ccccn1`, the LC retention time was 3.95 min.
For `CC(=O)C1(O)CCC2C3C=CC4=CC(=O)CCC4(C)C3CCC21C` (stereo not drawn), the LC retention time was 13.8 min.
Molecule `CC(C)C(N)C(=O)O` (stereo not drawn) has an LC retention time of 2.86 min.
In the case of `COc1cccc2ccc(C)nc12`, the LC retention time was 7.77 min.
`CN1CCC23c4c5ccc(OC6OC(C(=O)O)C(O)C(O)C6O)c4OC2C(O)C=CC3C1C5` (stereo not drawn) showed an LC retention time of 6.59 min.
With `Cc1ccc(C(=O)C=Cc2ccco2)cc1` the LC retention time was 15.1 min.
Work on `Cc1cccc(Cc2cnc[nH]2)c1C` yielded an LC retention time of 9.65 min.
`C[N+](C)(C)CCOC(=O)c1ccccc1` showed an LC retention time of 8.36 min.
Work on `Cc1cnc[nH]1` yielded an LC retention time of 5.66 min.
With `CC(C)(C)c1ccc(-c2nnnn2-c2ccccc2)cc1` the LC retention time was 16.8 min.
`Cc1nn(-c2ccc(NC(=O)c3ccco3)cc2)c(=O)c2ccccc12` gave an LC retention time of 12 min.
In the case of `CC(=O)Nc1c(C)cc(C)cc1N`, the LC retention time was 7.92 min.
With `CCCCCCCCCCCCCCCCN` the LC retention time was 16.7 min.
In the case of `CN(CCc1ccccn1)Cc1ccccn1`, the LC retention time was 7.79 min.
With `NC1CCNCC1` the LC retention time was 6.22 min.
For `S=C1N=C2CCCCC2C2(CCCCC2)N1` (stereo not drawn), the LC retention time was 11.6 min.
Work on `CCCCOC(=O)CCc1n[nH]c(=O)[nH]c1=O` yielded an LC retention time of 9.57 min.
`c1ccc(-c2cc3ccccc3[nH]2)cc1` gave an LC retention time of 15.8 min.
`NCCCNCCNCCCN` gave an LC retention time of 7.73 min.
For `COC(=O)c1ccc2[nH]c3c(c2c1)CCCC3`, the LC retention time was 14.8 min.
`c1ccc(-n2c3c(c4ccccc42)CCCC3)cc1` showed an LC retention time of 21.2 min.
With `NC(=O)c1cc2c(ccc3ccccc32)oc1=O` the LC retention time was 11.1 min.
Molecule `Cc1[nH]c2ccc(C(=O)O)cc2c1CC(=O)O` has an LC retention time of 8.13 min.
`O=c1[nH]c2ccccc2n1CCOc1ccccc1` gave an LC retention time of 12.2 min.
Molecule `Cc1cc(C(=O)N2CCCCC2)c2c(=O)n(CC(=O)N3CCc4ccccc43)c(=O)n(C)c2n1` has an LC retention time of 13.5 min.
Molecule `COc1ccc(-c2cnc3ccccc3n2)cc1` has an LC retention time of 14.7 min.
`C=CCC1(Nc2ccccc2)CCCCC1` showed an LC retention time of 11.3 min.
With `Cc1cccc(C(=O)N2CCc3c([nH]c4ccccc34)C2c2ccccc2)c1` (stereo not drawn) the LC retention time was 17.8 min.
In the case of `Oc1cccc(N2Cc3ccccc3C2)c1`, the LC retention time was 13.9 min.
In the case of `O=C(NCCCn1c2ccccc2c2ccccc21)Nc1ccccc1`, the LC retention time was 15.8 min.
`COc1ccc(C=NNC(N)=O)c(OC)c1` gave an LC retention time of 9.56 min.
`C=CCN(C)C` showed an LC retention time of 5.73 min.
For `COc1ccc2cnn(-c3ccccc3)c(=O)c2c1OC`, the LC retention time was 11.5 min.
For `COc1ccc(Oc2ccc(-n3c(C)ccc3C)cc2)cc1`, the LC retention time was 18.9 min.
Molecule `CC(=O)C=C(N)c1ccccc1` has an LC retention time of 10.4 min.
Work on `CC1(C)CC(=O)NC(=O)C1` yielded an LC retention time of 7.12 min.
`C1CCC(OCCN2CCN(CCOC3CCCCC3)CC2)CC1` gave an LC retention time of 10.9 min.
`Nc1cc(=O)[nH]c(=S)n1C1CCCC1` gave an LC retention time of 8.94 min.
For `Cc1ccc(-n2cnnn2)nc1`, the LC retention time was 9.44 min.
`CCNC1(c2cccs2)CCCCC1` showed an LC retention time of 9.19 min.
`CCN1CCNCC1` showed an LC retention time of 6.67 min.
`CNC(=O)c1ccc(N)cc1` showed an LC retention time of 6.25 min.
`Cc1ccc2c(CN3CCNCC3)cc(=O)oc2c1` showed an LC retention time of 8.81 min.
Molecule `S=C(NN=Cc1cccnc1)Nc1ccccc1` has an LC retention time of 9.9 min.
In the case of `CCSc1cccc2cccnc12`, the LC retention time was 11.7 min.
For `C=Cc1ccccn1`, the LC retention time was 6.97 min.
In the case of `CC(=O)Oc1ccc2cccc(N(C(C)=O)C(C)=O)c2c1`, the LC retention time was 12 min.
For `CC1(N)CCC(C(C)(C)N)CC1` (stereo not drawn), the LC retention time was 7.19 min.
Work on `Cc1cn(C2CC(O)C(CO)O2)c(=O)[nH]c1=O` (stereo not drawn) yielded an LC retention time of 8.97 min.
Molecule `Cc1ccc2[nH]c(=O)c(=O)[nH]c2c1C` has an LC retention time of 8.13 min.
For `COc1ccc(CN2CCC(N)CC2)cc1OC`, the LC retention time was 7.7 min.
Work on `CC(C)CC(=O)Nc1cccc(C(=O)O)c1` yielded an LC retention time of 10.1 min.
For `Cc1nc2ccccc2nc1COc1ccc2c(c1)OCO2`, the LC retention time was 14.1 min.
Work on `NC(=O)c1ccccc1NC(=O)c1cc2c(n(-c3ccccc3)c1=O)CCCC2=O` yielded an LC retention time of 10.5 min.
Molecule `CCc1ccc(C(=O)CC(Nc2ccccc2)c2ccccc2)cc1` (stereo not drawn) has an LC retention time of 18.4 min.
For `CN(C)Cc1ccccc1`, the LC retention time was 7.53 min.
For `C[N+](C)(CCOCc1ccccc1)CCOCc1ccccc1`, the LC retention time was 11.7 min.
`CC(C)NCC(O)COc1cccc2[nH]ccc12` (stereo not drawn) showed an LC retention time of 8.75 min.
For `Cc1cc(C)c(CO)cc1C=NNC(N)=O`, the LC retention time was 8.66 min.
`Cn1ccnc1` showed an LC retention time of 3.76 min.
`c1ccc(-c2cnc(-c3cccc4ccccc34)o2)cc1` gave an LC retention time of 19.4 min.
`CN(C)CCC(=O)c1ccc2ccccc2c1` gave an LC retention time of 9.4 min.
`Cc1cc2n[nH]nc2cc1C` gave an LC retention time of 9.69 min.
Work on `CC(=O)Nc1ccc(CCC(=O)O)cc1` yielded an LC retention time of 7.92 min.
For `c1ccc(CC2CCN(Cc3ccccn3)CC2)cc1`, the LC retention time was 10.1 min.
Work on `CN(C)C1CCNC1` (stereo not drawn) yielded an LC retention time of 6.6 min.
Work on `Cc1ccc(NC(=O)c2ccc(N)cc2)cc1` yielded an LC retention time of 10.9 min.
`O=c1[nH]c2ccccc2[nH]c1=O` gave an LC retention time of 6.56 min.
Molecule `COc1ccc(OCc2nc3ccccc3nc2C)cc1` has an LC retention time of 14.1 min.
For `CC(C)OC(=O)C(C)Nc1n[nH]c(=O)[nH]c1=O` (stereo not drawn), the LC retention time was 8.55 min.
With `CCN(Cc1ccncc1)C(=S)Nc1ccccc1` the LC retention time was 8.91 min.
`CCN1CN(Cc2ccccc2)CNC1=S` showed an LC retention time of 10.8 min.
`OCc1cccc(CO)n1` showed an LC retention time of 5.64 min.
Work on `CN(C)CCOC(C)(c1ccccc1)c1ccccn1` (stereo not drawn) yielded an LC retention time of 8.98 min.
In the case of `NC(=S)CCc1ccccn1`, the LC retention time was 6.55 min.
In the case of `Cn1c(=O)c2c(ncn2C)n(C)c1=O`, the LC retention time was 7.49 min.
In the case of `Cc1ccc(C)c(-c2cc(C)ncc2C)c1`, the LC retention time was 10.6 min.
Molecule `c1cn[nH]n1` has an LC retention time of 2.1 min.
`Cc1ccc2[nH]ccc2c1` gave an LC retention time of 12.8 min.
Molecule `CN(C)CCC=C1c2ccccc2C=Cc2ccccc21` has an LC retention time of 11.6 min.
In the case of `O=C1C=C(O)C(=O)C1c1ccccc1` (stereo not drawn), the LC retention time was 9.39 min.
`Cc1c(N)cc(N)cc1NC(=O)c1ccccc1` gave an LC retention time of 8.28 min.
With `CCOC(=O)C1(c2ccccc2)CCN(C)CC1` the LC retention time was 9.81 min.
Work on `O=C(O)CN=C1NC2(CCCCC2)Cc2ccccc21` yielded an LC retention time of 9.36 min.
`CC(CCc1ccccc1)NCC(O)c1ccc(O)c(C(N)=O)c1` (stereo not drawn) showed an LC retention time of 10 min.
With `CCNCCNCC` the LC retention time was 6.88 min.
For `O=C1CCN(c2ccccc2)N1`, the LC retention time was 9.05 min.
`Cc1ccc(-c2cc(C(=O)O)c3ccccc3n2)cc1C` gave an LC retention time of 13.3 min.
In the case of `O=C1c2ccccc2-c2nc3ccccc3nc21`, the LC retention time was 13 min.
`OCc1ccc2cc[nH]c2c1` showed an LC retention time of 8.46 min.
`O=C1CCNc2cc3ccccc3cc21` gave an LC retention time of 12.1 min.
In the case of `O=C(Nc1cccc(C2=NCCN2)c1)Nc1cccc(C2=NCCN2)c1`, the LC retention time was 7.98 min.
`Cc1c(C(=O)O)[nH]c(=O)[nH]c1=O` showed an LC retention time of 1.56 min.
Work on `O=C(O)c1ccncn1` yielded an LC retention time of 2 min.
With `CCCCCCCCCCCN` the LC retention time was 12.2 min.
`Nc1cccc2cc(-c3ccccc3)oc12` showed an LC retention time of 14.5 min.
With `COc1ccc(C(=O)NCC(=O)NN)cc1OC` the LC retention time was 7.29 min.
`Cc1cc(C)nc(N=C(N)Nc2cccc3ccccc23)n1` gave an LC retention time of 10.5 min.
With `CCOC(=O)CNc1ccccc1` the LC retention time was 12.4 min.
